# Experimental data reported in patent US20180057505A1, “BICYCLIC HETEROARYL COMPOUNDS USEFUL AS INHIBITORS OF THE PAR-2 SIGNALING PATHWAY” (VERTEX PHARMACEUTICALS INCORPORATED, priority 2015, published 2018).
# Columns and labels:
# Type in all cases: cell-based
# [1] = biological target: T1, PAR2 (HT-29 cells) (Homo sapiens, UniProt P55085); assay: Ca FLIPR TETRA assay, ANTAGONIST mode, activator 8 μM SLIGKV; details: HT-29 cells, activator 8 μM SLIGKV
# T1 construct: host or cells: HT-29
# T1 sequence (P55085 26-397): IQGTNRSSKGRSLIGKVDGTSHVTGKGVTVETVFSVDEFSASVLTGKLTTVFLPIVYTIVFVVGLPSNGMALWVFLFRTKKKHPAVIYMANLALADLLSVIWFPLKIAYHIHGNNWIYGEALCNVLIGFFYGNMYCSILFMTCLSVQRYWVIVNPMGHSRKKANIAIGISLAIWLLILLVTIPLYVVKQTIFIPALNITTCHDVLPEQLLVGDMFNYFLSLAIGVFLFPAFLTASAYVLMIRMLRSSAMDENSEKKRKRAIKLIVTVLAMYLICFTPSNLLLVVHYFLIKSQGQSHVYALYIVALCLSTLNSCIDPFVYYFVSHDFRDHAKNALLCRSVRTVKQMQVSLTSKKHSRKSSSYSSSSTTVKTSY
# Method in brief: (§1)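 Compounds are added to calcium 5-loaded HT-29 cells, read once for intrinsic Ca2+ activation, then incubated 30 min at room temperature. The same wells are then stimulated with a fixed final activator level and the Ca2+ response recorded on FLIPR Tetra.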
# [2] = system: UTP-stimulated Ca2+ response in HT-29 cells; assay: Ca FLIPR TETRA assay, ANTAGONIST mode, activator 0.6 μM UTP; details: HT-29 cells, activator 0.6 μM UTP
# Method in brief: as §1
# [3] = system: Thrombin-stimulated Ca2+ response in HT-29 cells; assay: Ca FLIPR TETRA assay, ANTAGONIST mode, activator 1 U/mL Thrombin; details: HT-29 cells, activator 1 U/mL Thrombin
# Method in brief: as §1
# [4] = biological target: T1, PAR2 (HT-29 cells); assay: Ca FLIPR TETRA assay, ANTAGONIST mode, activator 3.1 U/mL trypsin; details: HT-29 cells, activator 3.1 U/mL trypsin
# Method in brief: as §1
# [5] = maximal antagonist concentration per Method (A: 0.1, 1 or 2 μM; B: 50 μM)
# [6] = Method A: maximal concentration of antagonist 0.1, 1 or 2 μM
"IC50 [1, 5]",IC50 ([2]; Homo sapiens),IC50 ([3]; Homo sapiens),"IC50 [4, 5]","IC50 [1, 6]","IC50 [4, 6]",IC50 [2],IC50 [3],Structure (SMILES)
8 nM,> 2000 nM,> 2000 nM,53 nM,–,–,–,–,CC(C)(C)c1cc(-c2ccc(F)cc2)nc2cc(C(=O)N3CCN(C(=O)CCS(C)(=O)=O)CC3(C)C)oc12 [Example I-213]
–,> 2000 nM,> 2000 nM,–,2.7 nM,3.4 nM,–,–,CC(C)(C)c1cc(-c2ccc(Cl)c(F)c2)nc2cc(C(=O)N3CCC(CC(=O)NS(=O)(=O)C(F)(F)F)CC3(C)C)oc12 (stereo not shown) [Example I-433]
–,> 2000 nM,> 2000 nM,–,0.4 nM,0.9 nM,–,–,CC(C)(C)c1cc(-c2ccc(Cl)cc2)nc2cc(C(=O)N3CCN(C(=O)CC4(C(=O)O)CCC4)CC3(C)C)oc12 [Example I-337]
53 nM,> 50000 nM,> 50000 nM,74 nM,–,–,–,–,CC1(c2cc(-c3ccc(F)cc3)nc3cc(C(=O)N4CCN(C(=O)C5(c6ccc(Cl)cc6)CC5)CC4(C)C)oc23)CC1 [Example I-53]
–,> 2000 nM,> 2000 nM,–,80 nM,75 nM,–,–,CC(C)(C)c1cc(-c2ccc(Cl)cc2)nc2cc(C(=O)N3CCN(c4ccnnc4)CC3(C)C)oc12 [Example I-349]
1.1 nM,> 1000 nM,> 1000 nM,2.3 nM,–,–,–,–,Cc1ncc(C(=O)N2CCN(C(=O)c3cc4nc(-c5ccc(Cl)cc5)cc(C(C)(C)C)c4o3)C(C)(C)C2)[nH]1 [Example I-180]
0.7 nM,> 2000 nM,> 2000 nM,0.7 nM,–,–,–,–,CC(C)(C)c1cc(C2CC3(CCC3)C2)nc2cc(C(=O)N3CCN(C(=O)[C@H]4C[C@@](C)(O)C4)CC3(C)C)oc12 [Example I-296]
4.8 nM,13000 nM,17000 nM,11 nM,–,–,–,–,CC[C@@H](O)C(=O)N1CCN(C(=O)c2cc3nc(-c4ccc(F)cc4)cc(C(C)C)c3o2)C(C)(C)C1 [Example I-61]
–,> 2000 nM,> 2000 nM,–,2 nM,2.6 nM,–,–,Cc1ncc(N2CCN(C(=O)c3cc4nc(-c5ccc(Cl)c(F)c5)cc(C(C)(C)C)c4o3)C(C)(C)C2)nc1C(=O)O [Example I-524]
11 nM,> 2000 nM,> 2000 nM,13 nM,–,–,–,–,CC(C)(C)c1cc(-c2ccc(Cl)c(F)c2)nc2cc(C(=O)N3CCN(C(=O)C4CCC(C(=O)O)O4)CC3(C)C)oc12 (stereo not shown) [Example I-255]
–,> 2000 nM,> 2000 nM,–,0.09 nM,0.1 nM,–,–,CC(C)(C)c1cc(-c2ccc(Cl)c(F)c2)nc2cc(C(=O)N3CCN(C(=O)CC4(C(=O)O)CCCCC4)CC3(C)C)oc12 [Example I-547]
–,1190 nM,1150 nM,–,8.7 nM,18 nM,–,–,CC1(C)CCC(c2cc(C(C)(C)C)c3oc(C(=O)N4CCN(c5cccc(C(=O)O)n5)C(=O)C4(C)C)cc3n2)CC1 [Example I-458]
–,–,–,–,42 nM,70 nM,> 2000 nM,> 2000 nM,CC1(C)CCC(c2cc(C(C)(C)C)c3oc(C(=O)N4CCNC(=O)CC4(C)C)cc3n2)CC1 [Example I-486]
–,970 nM,1100 nM,–,0.2 nM,0.3 nM,–,–,CC(C)(C)c1cc(-c2ccc(Cl)c(F)c2)nc2cc(C(=O)N3CCC(CC(=O)NC#N)CC3(C)C)oc12 (stereo not shown) [Example I-432]
220 nM,> 1000 nM,> 1000 nM,370 nM,–,–,–,–,CC(C)(C)c1cc(-c2ccc(F)cc2)nc2cc(C(=O)N3CCN(CC(=O)O)C(=O)C3(C)C)oc12 [Example I-209]
–,> 2000 nM,> 2000 nM,–,12 nM,13 nM,–,–,CC(C)(C)c1cc(-c2ccc(Cl)c(F)c2)nc2cc(C(=O)N3CCN(c4ccccn4)C(=O)C3(C)C)oc12 [Example I-329]
–,> 2000 nM,> 2000 nM,–,0.3 nM,0.6 nM,–,–,CC(C)(C)c1cc(-c2ccc(Cl)c(F)c2)nc2cc(C(=O)N3CCN(c4cncc(C(=O)O)n4)CC3(C)C)oc12 [Example I-469]
–,> 2000 nM,> 2000 nM,–,4.3 nM,7.7 nM,–,–,CCS(=O)(=O)NCC(=O)N1CCN(C(=O)c2cc3nc(-c4ccc(Cl)cc4)cc(C(C)(C)C)c3o2)C(C)(C)C1 [Example I-467]
7 nM,> 2000 nM,> 2000 nM,17 nM,–,–,–,–,CC1(C)C(=O)NCCN1C(=O)c1cc2nc(-c3ccc(F)cc3)cc(C3CCCCC3)c2o1 [Example I-211]

"IC50 [1, 5]",IC50 ([2]; Homo sapiens),IC50 ([3]; Homo sapiens),"IC50 [4, 5]","IC50 [1, 6]","IC50 [4, 6]",IC50 [2],IC50 [3],Structure (SMILES)
–,1700 nM,> 2000 nM,–,0.2 nM,0.2 nM,–,–,CC(C)(C)c1cc(-c2ccc(Cl)c(F)c2)nc2cc(C(=O)N3CCC(CC(=O)O)CC3(C)C)oc12 (stereo not shown) [Example I-299]
–,> 2000 nM,> 2000 nM,–,0.8 nM,1.1 nM,–,–,CC(C)(CCC(=O)N1CCN(C(=O)c2cc3nc(-c4ccc(Cl)cc4)cc(C(C)(C)C)c3o2)C(C)(C)C1)C(=O)O [Example I-366]
0.2 nM,1200 nM,1400 nM,0.2 nM,–,–,–,–,CC(C)(C)c1cc(C2CC3(CCC3)C2)nc2cc(C(=O)N3CCN(C(=O)[C@H]4CC[C@@](C)(C(=O)O)CC4)CC3(C)C)oc12 [Example I-297]
23 nM,2700 nM,3100 nM,20 nM,–,–,–,–,CC(C)c1cc(-c2ccc(F)cc2)nc2cc(C(=O)N3CCNC(=O)C3(C)C)oc12 [Example I-7]
–,1200 nM,> 2000 nM,–,0.2 nM,0.2 nM,–,–,COc1ccc(N2CCN(C(=O)c3cc4nc(-c5ccc(Cl)c(F)c5)cc(C(C)(C)C)c4o3)C(C)(C)C2)nc1C(=O)O [Example I-482]
–,> 1250 nM,> 1250 nM,–,0.3 nM,0.4 nM,–,–,CC(C)(C)c1cc(-c2ccc(Cl)cc2)nc2cc(C(=O)N3CCN(c4nc(C(=O)O)co4)CC3(C)C)oc12 [Example I-481]
21 nM,15000 nM,15000 nM,49 nM,–,–,–,–,CC[C@H](O)C(=O)N1CCN(C(=O)c2cc3nc(-c4ccc(F)cc4)cc(C4(C)CC4)c3o2)C(C)(C)C1 [Example I-59]
13000 nM,14000 nM,17000 nM,12000 nM,–,–,–,–,CC(C)c1cc(-c2ccc(F)cc2)nc2cc(C(=O)N3CCN(C(=O)C(C)(C)O)CC3)oc12 [Example I-96]
23 nM,> 2000 nM,> 2000 nM,17 nM,–,–,–,–,CC1(C)CCC(c2cc(C(C)(C)C)c3oc(C(=O)N4CCN(c5cn[nH]c5)CC4(C)C)cc3n2)CC1 [Example I-258]
16 nM,> 1000 nM,> 1000 nM,25 nM,–,–,–,–,Cc1cc(-c2cc(C(C)(C)C)c3oc(C(=O)N4CCNC(=O)C4(C)C)cc3n2)ccc1F [Example I-161]
275 nM,–,–,730 nM,–,–,> 2000 nM,> 2000 nM,CC(C)(C)c1cc(C2CCC(F)(F)CC2)nc2cc(C(=O)N3CCN(C(=O)CNS(C)(=O)=O)C(=O)C3(C)C)oc12 [Example I-222]
–,> 2000 nM,> 2000 nM,–,10 nM,12 nM,–,–,CC(C)(C)c1cc(-c2ccc(Cl)c(F)c2)nc2cc(C(=O)N3CCN(c4ccncc4)C(=O)C3(C)C)oc12 [Example I-327]
–,> 2000 nM,> 2000 nM,–,1.3 nM,3.1 nM,–,–,Cc1ccnc(N2CCN(C(=O)c3cc4nc(C5CCC(C)(C)CC5)cc(C(C)(C)C)c4o3)C(C)(C)C2=O)n1 [Example I-339]
–,> 2000 nM,> 2000 nM,–,1.2 nM,1.7 nM,–,–,"CC(CC(=O)N1CCN(C(=O)c2cc3nc(-c4ccc(Cl)c(F)c4)cc(C(C)(C)C)c3o2)C(C)(C)C1)C(=O)O (single isomer, unassigned) [Example I-513]"
–,> 2000 nM,> 2000 nM,–,61 nM,110 nM,–,–,CC(C)(C)c1cc(C2CCC(F)(F)CC2)nc2cc(C(=O)N3CCN(c4cn[nH]c4)C(=O)C3(C)C)oc12 [Example I-310]
–,> 2000 nM,> 2000 nM,–,1.2 nM,1.7 nM,–,–,Cc1cc(C(=O)N2CCN(C(=O)c3cc4nc(-c5ccc(Cl)c(F)c5)cc(C(C)(C)C)c4o3)C(C)(C)C2)[nH]n1 [Example I-504]
–,> 2000 nM,> 2000 nM,–,0.9 nM,1.7 nM,–,–,Cc1ccnc(N2CCN(C(=O)c3cc4nc(-c5ccc(Cl)cc5)cc(C(C)(C)C)c4o3)C(C)(C)C2=O)n1 [Example I-340]
–,> 2000 nM,> 2000 nM,–,38 nM,34 nM,–,–,CC(C)(C)c1cc(-c2ccc(Cl)c(F)c2)nc2cc(C(=O)N3CCN(S(C)(=O)=O)C(=O)C3(C)C)oc12 [Example I-353]
